Ends that are not written are not given here.
Legend:
[1] = test system: Escherichia coli ATCC 25922; assay: Microdilution broth antibacterial susceptibility assay (NCCLS M7-A2), MIC; type: cell-based; settings: lowest concentration completely inhibiting growth; MHB, 16-20 hours, 35-37 C; tested in duplicate
Procedure: (§1) Antibacterial susceptibility testing was performed using a microdilution broth assay according to the guidelines of the National Committee for Clinical Laboratory Standards (NCCLS) Document M7-A2 (NCCLS, 1990). For preparation of peptide stock solutions, the peptide powder as an acetate salt was weighed on an analytical balance and transferred to a polypropylene tube. Stock solutions were prepared at a concentration of 1.024 mg/mL (or, in the case of natural polyphemusin, 1.00 mg/mL) by dissolving the powder in autoclaved (121° C., 20 psi, 20 minutes) deionized water. The peptide solution was used immediately, stored for up to ten days at 4° C., or stored longterm at -70° C. in 1 mL aliquotes in polypropylene cryovials. Mueller-Hinton broth (MHB)(BBL® catalog number 11443) was used in microtiter plates for diluting peptide stock solutions and for diluting each bacterial inoculum. MHB 5 mL prepared tubes (BBL® catalog number 95834) were used to culture an overnight plate of bacteria to the logarithmic phase of growth for inoculating the microtiter plates.
(§2) The bacteria used in the antimicrobial susceptibility testing are the quality control reference strains Staphylococcus aureus ATCC 29213, Escherichia coli ATCC 25922, and Pseudomonas aeruginosa ATCC 27853. Inoculum for each reference strain was prepared by taking a sample of bacteria from a 16-20 hour plate culture and inoculating into 5 mL of MHB (BBL® catalog number 95834) to an absorbance reading of approximately 0.02 at 600 nm (A600) on a Beckman DU®-64 spectrophotometer. The culture was incubated at 35°-37° C. with shaking in a New Brunswick incubator shaker (Model G25) and the growth monitored spectrophotometrically until it reached A600 of approximately 0.6; this absorbance represented approximately 1×10^8 colony-forming units per milliliter (CFUs/mL).
(§3) The culture was then diluted to approximately 1×10^6 CFUs/mL in autoclaved MHB (BBL® catalog number 11443) to produce the parent inoculum. A sample of the parent inoculating culture was diluted in 3 mM phosphate buffer (pH 7.2) through a series of 1:10 dilutions and the 10^-4 and 10^-5 dilutions were plated, incubated overnight at 35°-37° C., and counted the next day to verify inoculum density. Microtiter plates (Corning manufacturer number 2585096) were prepared with the use of a Beckman Biomek® 1000 automated laboratory workstation in combination with manual techniques. The microtiter plate was filled with diluent broth using the Biomek® 1000 instrument. Peptide stock solution was manually added to the top drug well of the microtiter plate using a Rainin Pipetman®, Model P-200. The peptide was serially diluted in twofold dilutions using the Biomek® 1000 instrument. One hundred microliters of the standardized bacterial inoculum was added to every well of the microtiter plates (except the blanks) using an Eppendorf Repeater® Model 4780 pipet equipped with an Eppendorf 5 mL combitip (catalog number 22 26 130-4). All peptides were tested in duplicate. In addition to the test peptide, three standard peptides (Magainin 2, MSI-63, and MSI-98) and a non-treated growth control were included to validate the assay. The final concentrations of peptide solution in the microtiter wells ranged from 0.25 ug/mL to 256 ug/mL. The final concentration of bacteria in the microtiter wells was 1-5×10^5 CFUs/mL. The final solution volume in each well was 200 uL. The microtiter plates were incubated overnight (16-20 hours) at 35°-37° C. after preparation in a Precision mechanical convection oven incubator Model 30M.
(§4) This value was determined using the unaided eye. In addition, for a permanent record, the absorbance at 630 nm was read on a Dynatech MR5000 Microplate Reader, Version 2.7, and a printed record was generated on an Epson LX800 dot-matrix printer.

[2] = test system: Pseudomonas aeruginosa ATCC 27853; assay: as above; type: cell-based; settings: lowest concentration completely inhibiting growth; MHB, 16-20 hours, 35-37 C; tested in duplicate
Procedure: as §1, §2, §3, §4

[3] = test system: Staphylococcus aureus ATCC 29213; assay: as above; type: cell-based; settings: lowest concentration completely inhibiting growth; MHB, 16-20 hours, 35-37 C; tested in duplicate
Procedure: as §1, §2, §3, §4

[4] = test system: reference strains Staphylococcus aureus ATCC 29213, Escherichia coli ATCC 25922, and Pseudomonas aeruginosa ATCC 27853; assay: Antimicrobial susceptibility assay as in Example 1, organism not specified per result; type: cell-based
Procedure: Antibacterial susceptibility testing was performed using a microdilution broth assay according to the guidelines of the National Committee for Clinical Laboratory Standards (NCCLS) Document M7-A2 (NCCLS, 1990). For preparation of peptide stock solutions, the peptide powder as an acetate salt was weighed on an analytical balance and transferred to a polypropylene tube. Stock solutions were prepared at a concentration of 1.024 mg/mL (or, in the case of natural polyphemusin, 1.00 mg/mL) by dissolving the powder in autoclaved (121° C., 20 psi, 20 minutes) deionized water. […]
as §2, with “(CFUs/mL). […]” for “(CFUs/mL).”
This value was determined using the unaided eye. […]

[5] = test system: E. coli ATCC strain 25922; assay: Bacterial growth inhibition assay, aliquots spotted onto a bacterial lawn; type: cell-based, Escherichia coli; settings: purified recombinant peptide at 0.4 ug/mL; half-strength trypticase soy broth agar with 50 mM sodium fluoride
Procedure: Small aliquots of recombinant MSI-556 and other HPLC fractions from the CNBr digest of MBP-MSI-556 fusion protein were spotted onto a lawn of E. coli ATCC strain 25922 grown on a half-strength trypticase soy broth agar plate containing 50 mM sodium fluoride.

GIGKFLKKAKKFGKAFVKILKK-NH2 [MSI-78]
Minimum Inhibitory Concentration, Test Organism: E. coli [1]: 8 µg/mL | Minimum Inhibitory Concentration, Test Organism: Pseudo. aeruginosa [2]: 4 to 8 µg/mL | Minimum Inhibitory Concentration, Test Organism: Staph. aureus [3]: 8 to 16 µg/mL

NH2 --RRWCFRVCYRGFCYRKCRG--OH (H-RRWCFRVCYRGFCYRKCRG-OH; cysteine pairing not given here) [Lim1]
Bioactivity in antimicrobial susceptibility assay ([4]; HPLC-purified recombinant peptide, without reformation of the two disulfide bridges): bioactive

NH2 --GIGKFLKKAKKFGKAGVKILKKG--OH [MSI-556]
Minimum Inhibitory Concentration, Test Organism: E. coli [1]: 4 to 16 µg/mL | Minimum Inhibitory Concentration, Test Organism: Pseudo. aeruginosa [2]: 4 µg/mL | Minimum Inhibitory Concentration, Test Organism: Staph. aureus [3]: 16 µg/mL | Bacterial lawn growth inhibition as judged visually [5]: significant antimicrobial activity | Spectrum of antibacterial activity (summary of Table I) ([4]; unamidated peptides, conclusion from MIC values): broadly active against both gram-negative and gram-positive human pathogenic bacteria

GIGKFLHSAKKFGKAFVGEIMNS [Native Magainin 2, reference compound]
Minimum Inhibitory Concentration, Test Organism: E. coli [1]: 64 to 128 µg/mL | Minimum Inhibitory Concentration, Test Organism: Pseudo. aeruginosa [2]: 256 µg/mL | Minimum Inhibitory Concentration, Test Organism: Staph. aureus [3]: 256 µg/mL

Source: patent US5589364A, “Recombinant production of biologically active peptides and proteins” (priority 1994, dated 1996)
